Measured values as given in patent US20180072997A1, “INHIBITORS OF HUMAN IMMUNODEFICIENCY VIRUS REPLICATION” (ViiV HEATHCARE UK (NO.5) LIMITED, priority 2015, published 2018).

How the values were obtained:
[1] = Compound cytotoxicity, XTT-based colorimetric assay; type: cell-based; conditions: human, uninfected MT2 cells, day 4, XTT
Experimental: Compound cytotoxicity and the corresponding CC50 values were determined using the same protocol as described in the antiviral assay except that uninfected cells were used. Cytotoxicity was assessed on day 4 in uninfected MT2 cells by using a XTT (2,3-bis[2-Methoxy-4-nitro-5-sulfophenyl]-2H-tetrazolium-5-carboxyanilide inner salt)-based colorimetric assay (Sigma-Aldrich, St Louis, Mo.).

[2] = tested on: recombinant NL4-3 virus (Renilla luciferase in nef) in MT-2 cells; experiment: whole plant or invertebrate; type: cell-based, HIV; conditions: luciferase activity
Experimental: HIV cell culture assay—MT-2 cells, 293T cells and the proviral DNA clone of NL4-3 virus were obtained from the NIH AIDS Research and Reference Reagent Program. MT-2 cells were propagated in RPMI 1640 media supplemented with 10% heat inactivated fetal bovine serum (FBS), 100 μg/ml penicillin G and up to 100 units/mL streptomycin. The 293T cells were propagated in DMEM media supplemented with 10% heat inactivated FBS, 100 μg/mL penicillin G and 100 μg/mL streptomycin. A recombinant NL4-3 proviral clone, in which a section of the nef gene was replaced with the Renilla luciferase gene, was used to make the reference virus used in these studies. The recombinant virus was prepared through transfection of the recombinant NL4-3 proviral clone into 293T cells using Transit-293 Transfection Reagent from Mirus Bio LLC (Madison, Wis.). Supernatent was harvested after 2-3 days and the amount of virus present was titered in MT-2 cells using luciferase enzyme activity as a marker by measuring luciferase enzyme activity. Luciferase was quantitated using the EnduRen Live Cell Substrate from Promega (Madison, Wis.). Antiviral activities of compounds toward the recombinant virus were quantified by measuring luciferase activity in MT-2 cells infected for 4-5 days with the recombinant virus in the presence of serial dilutions of the compound.
(Johnson V A, Byington R T. Infectivity Assay. In Techniques in HIV Research. ed. Aldovini A, Walker BD. 71-76. New York: Stockton Press.1990).

[3] = Renilla, NL43, MT-2 cells infected for 4-5 days with recombinant NL4-3 Renilla luciferase virus
[4] = MT-2 cells infected for 4-5 days with recombinant NL4-3 Renilla luciferase virus

COc1ccc(N(C)C(=O)[C@H](Cc2ccccc2)NC(=O)C2CCCCC2C(=O)N[C@@H](Cc2ccccc2)C(=O)N(C)c2ccc(OC)cc2)cc1 (mixture of isomers) [Example 53]
CC50 at 4 days [1]: ≥ 33.3 µM
EC50 [2, 3]: 0.34 µM

COc1ccc(N(C)C(=O)[C@H](Cc2ccccc2)NC(=O)C=C(C)CC(=O)N[C@@H](Cc2ccccc2)C(=O)N(C)c2ccc(OC)cc2)cc1 (single isomer, unassigned) [Example 113]
CC50 at 4 days [1]: 25.3 µM
EC50 [2, 4]: 0.36 µM

COc1ccc(N(C)C(=O)[C@H](Cc2ccccc2)NC(=O)C(C)n2c(=O)n(C(C)C(=O)N[C@@H](Cc3ccccc3)C(=O)N(C)c3ccc(OC)cc3)c3ccccc32)cc1 (single isomer, unassigned) [Example 131]
CC50 at 4 days [1]: 6.3 µM
EC50 [2, 3]: 0.49 µM

COc1ccc(N(C)C(=O)[C@H](Cc2cc(F)cc(F)c2)NC(=O)C(C)n2c(=O)n(C(C)C(=O)N[C@@H](Cc3cc(F)cc(F)c3)C(=O)N(C)c3ccc(OC)cc3)c3ccccc32)cc1 (single isomer, unassigned) [Example 132]
CC50 at 4 days [1]: 7.3 µM
EC50 [2, 4]: 1.94 µM

C=CCCN(C(=O)[C@H](Cc1cc(F)cc(F)c1)NC(=O)NS(=O)(=O)N[C@@H](Cc1cc(F)cc(F)c1)C(=O)N(CCC=C)c1ccc2scnc2c1)c1ccc2scnc2c1 (single isomer, unassigned) [Example 141]
CC50 at 4 days [1]: 16.2 µM
EC50 [2, 4]: 0.09 µM

COc1ccc(N(C)C(=O)[C@H](Cc2ccccc2)NC(=O)N[C@@H](Cc2ccccc2)C(=O)N(C)c2ccc(OC)cc2)cc1 [Example 1]
CC50 at 4 days [1]: 23.1 µM
EC50 [2, 3]: 2.86 µM

COc1ccc(N(C)C(=O)[C@H](Cc2ccccc2)NC(=O)NS(=O)(=O)N[C@@H](Cc2ccccc2)C(=O)N(C)c2ccc(OC)cc2)cc1 [Example 2]
CC50 at 4 days [1]: 77.9 µM
EC50 [2, 3]: 0.03 µM

COc1ccc(N(C)C(=O)[C@H](Cc2ccccc2)NC(=O)CC(=O)N[C@@H](Cc2ccccc2)C(=O)N(C)c2ccc(OC)cc2)cc1 [Example 3]
CC50 at 4 days [1]: 70.9 µM
EC50 [2, 3]: 1.94 µM

COc1ccc(N(C)C(=O)[C@H](Cc2ccccc2)NC(=O)C(C)(C)C(=O)N[C@@H](Cc2ccccc2)C(=O)N(C)c2ccc(OC)cc2)cc1 [Example 4]
CC50 at 4 days [1]: ≥ 100 µM
EC50 [2, 3]: 1.87 µM

CCOc1ccc(N(CC)C(=O)[C@H](Cc2ccccc2)NC(=O)NS(=O)(=O)N[C@@H](Cc2ccccc2)C(=O)N(CC)c2ccc(OCC)cc2)cc1 [Example 5]
CC50 at 4 days [1]: ≥ 33.3 µM
EC50 [2, 3]: 0.15 µM

COc1ccc(N(C)C(=O)[C@H](Cc2ccccc2)NC(=O)NS(=O)(=O)N[C@@H](Cc2ccccc2)c2nnc(SC)o2)cc1 [Example 6]
CC50 at 4 days [1]: ≥ 100 µM
EC50 [2, 3]: 6.78 µM

COc1ccc(N(C)C(=O)[C@H](Cc2ccccc2)NC(=O)NS(=O)(=O)N[C@@H](Cc2ccccc2)c2nc(C)no2)cc1 [Example 7]
CC50 at 4 days [1]: ≥ 100 µM
EC50 [2, 3]: 3.76 µM

COc1ccc(N(C)C(=O)[C@H](Cc2ccccc2)NC(=O)NS(=O)(=O)N[C@@H](Cc2ccccc2)C(=O)N2CCCC2)cc1 [Example 8]
CC50 at 4 days [1]: ≥ 33.3 µM
EC50 [2, 3]: 2.04 µM

COc1ccc(N(C)C(=O)[C@H](Cc2ccccc2)NC(=O)NS(=O)(=O)N[C@@H](Cc2ccc(F)cc2)C(=O)N(C)C)cc1 [Example 9]
CC50 at 4 days [1]: ≥ 100 µM
EC50 [2, 3]: 2.67 µM

COc1ccc(N(C)C(=O)[C@H](Cc2ccccc2)NC(=O)NC(=O)N[C@@H](Cc2ccccc2)C(=O)N(C)c2ccc(OC)cc2)cc1 [Example 10]
CC50 at 4 days [1]: 10.5 µM
EC50 [2, 3]: 4.71 µM

COc1ccc(N(C)C(=O)[C@H](Cc2ccccc2)NC(=O)NS(=O)(=O)N[C@H](Cc2ccccc2)C(=O)N(C)c2ccc(OC)cc2)cc1 [Example 11]
CC50 at 4 days [1]: ≥ 33.3 µM
EC50 [2, 3]: 0.47 µM

COc1ccc(NC(=O)[C@H](Cc2ccccc2)NS(=O)(=O)NC(=O)N[C@@H](Cc2ccccc2)C(=O)N(C)c2ccc(OC)cc2)cc1 [Example 12]
CC50 at 4 days [1]: 29 µM
EC50 [2, 3]: 12.4 µM

CN(C(=O)[C@H](Cc1ccccc1)NC(=O)NS(=O)(=O)N[C@@H](Cc1ccccc1)C(=O)N(C)c1ccc2scnc2c1)c1ccc2scnc2c1 [Example 13]
CC50 at 4 days [1]: ≥ 100 µM
EC50 [2, 3]: 0.08 µM

COc1ccc(N(C)C(=O)[C@H](Cc2ccccc2)NC(=O)NS(=O)(=O)N[C@@H](Cc2ccccc2)C(=O)N(C)c2ccc3c(c2)OCO3)cc1 [Example 14]
CC50 at 4 days [1]: ≥ 50 µM
EC50 [2, 3]: 0.08 µM

COc1ccc(N(C)C(=O)[C@H](Cc2ccccc2)NC(=O)NS(=O)(=O)N[C@@H](Cc2ccccc2)C(=O)N(C)c2cc(C)c(OC)cc2C)cc1 [Example 15]
CC50 at 4 days [1]: 35.3 µM
EC50 [2, 3]: 4.22 µM

COc1ccc(N(C)C(=O)[C@H](Cc2ccccc2)NC(=O)NS(=O)(=O)N[C@@H](Cc2ccccc2)C(=O)N(C)c2ccc(OC)cc2C)cc1 [Example 16]
CC50 at 4 days [1]: ≥ 33.3 µM
EC50 [2, 3]: 1.72 µM

COc1ccc(N(C)C(=O)[C@H](Cc2ccccc2)NC(=O)NS(=O)(=O)N[C@@H](Cc2ccccc2)C(=O)N(C)c2cc(OC)c(OC)c(OC)c2)cc1 [Example 17]
CC50 at 4 days [1]: 15.9 µM
EC50 [2, 3]: 12.2 µM

CN(C(=O)[C@H](Cc1cc(F)cc(F)c1)NC(=O)NS(=O)(=O)N[C@@H](Cc1cc(F)cc(F)c1)C(=O)N(C)c1ccc2scnc2c1)c1ccc2scnc2c1 [Example 18]
CC50 at 4 days [1]: 85.3 µM
EC50 [2, 3]: 0.03 µM

CN(C(=O)[C@H](Cc1ccccc1)NC(=O)NS(=O)(=O)N[C@@H](Cc1ccccc1)C(=O)N(C)c1ccc2c(c1)OCO2)c1ccc2c(c1)OCO2 [Example 19]
CC50 at 4 days [1]: 99.5 µM
EC50 [2, 3]: 0.17 µM

COc1ccc(N(C)C(=O)[C@H](Cc2cc(F)cc(F)c2)NC(=O)NS(=O)(=O)N[C@@H](Cc2cc(F)cc(F)c2)C(=O)N(C)c2ccc(OC)cc2)cc1 [Example 20]
CC50 at 4 days [1]: 35 µM
EC50 [2, 3]: 0.01 µM

COc1ccc(N(C)C(=O)[C@H](Cc2ccccc2)NC(=O)CCC(=O)N[C@@H](Cc2ccccc2)C(=O)N(C)c2ccc(OC)cc2)cc1 [Example 21]
CC50 at 4 days [1]: 27 µM
EC50 [2, 3]: 3.25 µM

COc1ccc(N(C)C(=O)[C@H](Cc2ccccc2)NC(=O)CCCC(=O)N[C@@H](Cc2ccccc2)C(=O)N(C)c2ccc(OC)cc2)cc1 [Example 22]
CC50 at 4 days [1]: 21.1 µM
EC50 [2, 3]: 1.31 µM

COc1ccc(N(C)C(=O)[C@H](Cc2ccccc2)NC(=O)CCCCC(=O)N[C@@H](Cc2ccccc2)C(=O)N(C)c2ccc(OC)cc2)cc1 [Example 23]
CC50 at 4 days [1]: 26.9 µM
EC50 [2, 3]: 1.16 µM

COc1ccc(N(C)C(=O)[C@H](Cc2ccccc2)NC(=O)c2cccc(C(=O)N[C@@H](Cc3ccccc3)C(=O)N(C)c3ccc(OC)cc3)c2)cc1 [Example 24]
CC50 at 4 days [1]: 4.2 µM
EC50 [2, 3]: 0.09 µM

COc1ccc(N(C)C(=O)[C@H](Cc2ccccc2)NC(=O)c2ccc(C(=O)N[C@@H](Cc3ccccc3)C(=O)N(C)c3ccc(OC)cc3)cc2)cc1 [Example 25]
CC50 at 4 days [1]: 3.7 µM
EC50 [2, 3]: 1.13 µM

COc1ccc(N(C)C(=O)[C@H](Cc2ccccc2)NC(=O)CN2c3ccccc3N(CC(=O)N[C@@H](Cc3ccccc3)C(=O)N(C)c3ccc(OC)cc3)S2(=O)=O)cc1 [Example 27]
CC50 at 4 days [1]: ≥ 100 µM
EC50 [2, 3]: 0.04 µM

COc1ccc(N(C)C(=O)[C@H](Cc2ccccc2)NS(=O)(=O)CCCS(=O)(=O)N[C@@H](Cc2ccccc2)C(=O)N(C)c2ccc(OC)cc2)cc1 [Example 28]
CC50 at 4 days [1]: 30 µM
EC50 [2, 3]: 1.4 µM

COc1ccc(N(C)C(=O)[C@H](Cc2ccccc2)NC(=O)CN(CCO)CC(=O)N[C@@H](Cc2ccccc2)C(=O)N(C)c2ccc(OC)cc2)cc1 [Example 29]
CC50 at 4 days [1]: 31.8 µM
EC50 [2, 3]: 2.49 µM

COc1ccc(N(C)C(=O)[C@H](Cc2ccccc2)NC(=O)CC(C)(C)C(=O)N[C@@H](Cc2ccccc2)C(=O)N(C)c2ccc(OC)cc2)cc1 [Example 30]
CC50 at 4 days [1]: 31.2 µM
EC50 [2, 3]: 4.96 µM

COc1ccc(N(C)C(=O)[C@H](Cc2ccccc2)NC(=O)/C=C/C(=O)N[C@@H](Cc2ccccc2)C(=O)N(C)c2ccc(OC)cc2)cc1 [Example 31]
CC50 at 4 days [1]: 3.5 µM
EC50 [2, 3]: 0.78 µM

COc1ccc(N(C)C(=O)[C@H](Cc2ccccc2)NC(=O)C[C@H](O)C(=O)N[C@@H](Cc2ccccc2)C(=O)N(C)c2ccc(OC)cc2)cc1 [Example 32]
CC50 at 4 days [1]: 34.6 µM
EC50 [2, 3]: 3.29 µM

COc1ccc(N(C)C(=O)[C@H](Cc2cc(F)cc(F)c2)NC(=O)CN2c3ccccc3N(CC(=O)N[C@@H](Cc3cc(F)cc(F)c3)C(=O)N(C)c3ccc(OC)cc3)S2(=O)=O)cc1 [Example 34]
CC50 at 4 days [1]: ≥ 100 µM
EC50 [2, 3]: 0.01 µM

CN(C(=O)[C@H](Cc1cc(F)cc(F)c1)NC(=O)c1c(F)c(F)c(F)c(C(=O)N[C@@H](Cc2cc(F)cc(F)c2)C(=O)N(C)c2ccc3scnc3c2)c1F)c1ccc2scnc2c1 [Example 81]
CC50 at 4 days [1]: 2.8 µM

CN(C(=O)[C@H](Cc1cc(F)cc(F)c1)NC(=O)CN1c2ccccc2N(CC(=O)N[C@@H](Cc2cc(F)cc(F)c2)C(=O)N(C)c2ccc3scnc3c2)S1(=O)=O)c1ccc2scnc2c1 [Example 118]
CC50 at 4 days [1]: ≥ 100 µM

CCc1ccc(N(C)C(=O)[C@H](Cc2cc(F)cc(F)c2)NC(=O)NS(=O)(=O)N[C@@H](Cc2cc(F)cc(F)c2)C(=O)N(C)c2ccc(CC)cc2)cc1 [Example 173]
CC50 at 4 days [1]: 25.5 µM
